IC50 and EC50 data for 35 compounds are collected here from ChEMBL document CHEMBL1268952, “Design, synthesis, and evaluation of indolinones as inhibitors of the transforming growth factor β receptor I (TGFβRI)” (J Med Chem, 2010).

Molecules are shown by their SMILES. Some results are limits rather than exact numbers.

In test [1] the target is T1, TGF-beta receptor type-1 (Homo sapiens, UniProt P36897).
T1 sequence (P36897 whole entry): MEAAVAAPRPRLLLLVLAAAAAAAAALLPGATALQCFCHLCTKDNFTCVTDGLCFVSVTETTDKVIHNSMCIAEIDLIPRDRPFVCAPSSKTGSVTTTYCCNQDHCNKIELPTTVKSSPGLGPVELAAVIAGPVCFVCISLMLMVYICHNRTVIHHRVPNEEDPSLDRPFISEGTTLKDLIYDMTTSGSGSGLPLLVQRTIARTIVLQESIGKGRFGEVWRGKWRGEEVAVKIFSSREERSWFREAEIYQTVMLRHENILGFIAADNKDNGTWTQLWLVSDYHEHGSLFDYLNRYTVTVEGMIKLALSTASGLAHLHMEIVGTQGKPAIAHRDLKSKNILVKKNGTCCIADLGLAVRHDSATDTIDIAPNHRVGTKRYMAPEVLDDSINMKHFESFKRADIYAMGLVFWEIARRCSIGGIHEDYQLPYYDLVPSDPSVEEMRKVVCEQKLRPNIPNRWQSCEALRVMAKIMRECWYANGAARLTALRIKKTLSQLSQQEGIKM
Nature of the test: Inhibition of TGFbeta receptor.

The target in test [2] is T1, TGF-beta receptor type-1. Nature of the test: Inhibition of TGFbeta receptor in human HaCaT cells assessed as Smad phosphorylation by ELISA. The format is cell-based.
In test [3] the target is Platelet-derived growth factor receptor alpha (Homo sapiens, UniProt P16234). Put plainly: Inhibition of PDGFRalpha.
Platelet-derived growth factor receptor alpha, sequence (P16234 whole entry): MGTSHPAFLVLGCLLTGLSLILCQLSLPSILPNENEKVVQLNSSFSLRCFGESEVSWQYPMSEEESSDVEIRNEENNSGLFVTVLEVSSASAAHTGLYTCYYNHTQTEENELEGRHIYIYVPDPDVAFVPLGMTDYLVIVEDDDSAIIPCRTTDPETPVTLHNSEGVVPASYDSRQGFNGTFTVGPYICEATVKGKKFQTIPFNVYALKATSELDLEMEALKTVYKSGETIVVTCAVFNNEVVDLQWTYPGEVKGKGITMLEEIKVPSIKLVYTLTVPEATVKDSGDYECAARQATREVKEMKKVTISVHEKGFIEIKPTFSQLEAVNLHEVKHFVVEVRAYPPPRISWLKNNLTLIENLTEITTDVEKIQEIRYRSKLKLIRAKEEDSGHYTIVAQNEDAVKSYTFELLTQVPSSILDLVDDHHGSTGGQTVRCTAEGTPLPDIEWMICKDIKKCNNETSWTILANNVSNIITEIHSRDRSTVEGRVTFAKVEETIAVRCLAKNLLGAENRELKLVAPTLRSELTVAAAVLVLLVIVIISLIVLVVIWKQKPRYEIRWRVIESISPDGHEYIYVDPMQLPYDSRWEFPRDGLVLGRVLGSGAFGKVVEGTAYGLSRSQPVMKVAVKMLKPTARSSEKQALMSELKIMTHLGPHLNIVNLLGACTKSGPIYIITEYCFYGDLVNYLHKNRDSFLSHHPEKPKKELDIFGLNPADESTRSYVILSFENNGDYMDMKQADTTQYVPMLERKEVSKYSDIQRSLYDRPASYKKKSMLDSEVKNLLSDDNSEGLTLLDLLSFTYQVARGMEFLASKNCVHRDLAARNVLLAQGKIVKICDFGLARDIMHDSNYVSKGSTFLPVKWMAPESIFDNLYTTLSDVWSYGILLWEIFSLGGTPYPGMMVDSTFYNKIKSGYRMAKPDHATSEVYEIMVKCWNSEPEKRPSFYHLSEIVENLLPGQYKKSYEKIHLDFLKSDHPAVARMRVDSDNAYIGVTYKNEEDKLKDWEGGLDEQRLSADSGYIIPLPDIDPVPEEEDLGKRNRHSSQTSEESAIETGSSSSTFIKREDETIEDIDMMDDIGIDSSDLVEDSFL
Test [4] relates to HaCaT. Put plainly: Cytotoxicity against human HaCaT cells.

Usually IC50 stands for the concentration that inhibits the measured activity by half. High values mean lower potency, low ones higher potency. What is called EC50 is the concentration at which the effect is half-maximal. With `CCN(C)C(=O)c1ccc2c(c1)NC(=O)/C2=C(\Nc1ccc(N(C)C(=O)CN(C)C)cc1)c1ccccc1`, the IC50 in test [1] was 29 nM. Besides, in test [2], the EC50 worked out at 382 nM. The like results for `O=C1Nc2cc(C(=O)NCCO)ccc2/C1=C(/Nc1ccc(CN2CCCCC2)cc1)c1ccccc1` were, in that order, 430 nM and more than 50000 nM. The like results for `CCCCNC(=O)c1ccc2c(c1)NC(=O)/C2=C(\Nc1ccc(CN2CCCCC2)cc1)c1ccccc1` were, in that order, 91 nM and 1060 nM. On to `CCN(C)C(=O)c1ccc2c(c1)NC(=O)/C2=C(\Nc1ccc(N(CC(=O)N(C)C)S(C)(=O)=O)cc1)c1ccccc1`, for which the IC50 in test [1] worked out at 86 nM. In test [2], the concentration for a half-maximal effect (EC50) is more than 3000 nM. The like results for `CCNC(=O)c1ccc2c(c1)NC(=O)/C2=C(\Nc1ccc(N(C)C(=O)CN(C)C)cc1)c1ccccc1` were, in that order, 35 nM and 3380 nM. Compound `CCNC(=O)c1ccc2c(c1)NC(=O)/C2=C\Nc1ccc(N(C)C(=O)CN(C)C)cc1` displayed an IC50 in test [1] of 52 nM. Also, the half-maximal effective concentration (EC50) in test [2] came out at 4360 nM.

The compound `CCN(C)C(=O)c1ccc2c(c1)NC(=O)/C2=C(\Nc1ccc(N(C)C(=O)CN2CCN(C)CC2)cc1)c1ccccc1` displayed an IC50 in test [1] of 7 nM. Also, in test [2], the concentration giving a half-maximal response (EC50) was determined as 833 nM. For the compound `CCN(C)C(=O)c1ccc2c(c1)NC(=O)/C2=C(\NC1CCCCC1)c1ccccc1`, the half-inhibitory concentration (IC50) in test [3] is more than 5000 nM; in test [1] it was more than 50000 nM. In test [2], the EC50 is more than 10000 nM.

`CCNC(=O)c1ccc2c(c1)NC(=O)/C2=C(\Nc1ccc(CCN(C)C)cc1)c1ccccc1` displayed a half-inhibitory concentration (IC50) in test [1] of 47 nM. Moreover, the half-maximal effective concentration (EC50) in test [2] came out at 135 nM. In the same order, the values of `CCN(C)C(=O)c1ccc2c(c1)NC(=O)/C2=C(\Nc1ccc(N(CCN(C)C)S(C)(=O)=O)cc1)c1ccccc1` are 7 nM and 209 nM. The compound `CNC(=O)c1ccc2c(c1)NC(=O)/C2=C(\Nc1ccc(CN2CCCCC2)cc1)c1ccccc1` returned an IC50 in test [1] of 32 nM. Consider `CCN(C)C(=O)c1ccc2c(c1)NC(=O)/C2=C(\Nc1ccccc1)c1ccccc1`, for which the IC50 is more than 5000 nM in test [3] and 2590 nM in test [1]. For `CCNC(=O)c1ccc2c(c1)NC(=O)/C2=C\Nc1ccc(N(C)C(=O)CN2CCN(C)CC2)cc1`, the IC50 in test [3] is more than 5000 nM; in test [1] it was 15 nM. The EC50 in test [2] was 2180 nM.

Consider `CCN(C)C(=O)c1ccc2c(c1)NC(=O)/C2=C(\Nc1ccc(CCN(C)C)cc1)c1ccccc1`, for which the IC50 in test [4] is more than 1000 nM; in test [1] it was 64 nM. For the same compound, the 50% effective concentration (EC50) in test [2] stood at 259 nM. In turn, `CCNC(=O)c1ccc2c(c1)NC(=O)/C2=C\Nc1ccc(N(CCCN(C)C)C(C)=O)cc1` showed an IC50 in test [1] of 17 nM. Further, the EC50 in test [2] worked out at 597 nM.

In the case of `CN(C)C(=O)c1ccc2c(c1)NC(=O)/C2=C(\Nc1ccc(CN2CCCCC2)cc1)c1ccccc1`, in test [1], inhibition was half-maximal at 35 nM (IC50). Also, in test [2], the EC50 was 246 nM.

`CCN(CC)Cc1cccc(N/C(=C2\C(=O)Nc3cc(C(=O)N(C)CC)ccc32)c2ccccc2)c1` showed an IC50 in test [1] of 616 nM. As to `CCN(C)C(=O)c1ccc2c(c1)NC(=O)/C2=C(\Nc1ccc(N(CCCN(C)C)C(C)=O)cc1)c1ccccc1`, the IC50 in test [1] is 9 nM. The concentration for a half-maximal effect (EC50) in test [2] amounted to 411 nM.

In test [1], `CCN(CC)C(=O)c1ccc2c(c1)NC(=O)/C2=C(\Nc1ccc(CN2CCCCC2)cc1)c1ccccc1` displayed a concentration for half-maximal inhibition (IC50) of 625 nM.

The compound `O=C1Nc2cc(C(=O)N3CCCC3)ccc2/C1=C(/Nc1ccc(CN2CCCCC2)cc1)c1ccccc1` yielded an IC50 in test [1] of 245 nM. In addition, the EC50 in test [2] stood at 696 nM. `CCN(C)C(=O)c1ccc2c(c1)NC(=O)/C2=C(\Nc1ccc(N(CCN(C)C)C(C)=O)cc1)c1ccccc1`: 8 nM corresponded to half-maximal inhibition in test [1] (IC50). Further, in test [2], the concentration for a half-maximal effect (EC50) was 102 nM. Regarding `CCNC(=O)c1ccc2c(c1)NC(=O)/C2=C(\Nc1ccc(N(C)C(=O)CN2CCN(C)CC2)cc1)c1ccccc1`, the half-maximal inhibitory concentration (IC50) in test [1] is 9 nM. Besides, in test [2], the half-maximal effective concentration (EC50) was determined as 1370 nM.

With `CCN(CC)CCNC(=O)c1ccc(N/C(=C2\C(=O)Nc3cc(C(=O)N(C)CC)ccc32)c2ccccc2)cc1`, inhibition in test [1] was half-maximal at 64 nM (IC50). The concentration for a half-maximal effect (EC50) in test [2] was 542 nM. In test [1], `CCN(C)C(=O)c1ccc2c(c1)NC(=O)/C2=C(\Nc1ccc(C(=O)O)cc1)c1ccccc1` registered an IC50 of 782 nM. With `CCNC(=O)c1ccc2c(c1)NC(=O)/C2=C(\Nc1ccc(CN2CCCCC2)cc1)c1ccccc1`, 24 nM corresponded to half-maximal inhibition in test [1] (IC50). In test [2], the concentration for a half-maximal effect (EC50) came out at 75 nM. The compound `CCNC(=O)c1ccc2c(c1)NC(=O)/C2=C\Nc1ccc(CN2CCCCC2)cc1` had an IC50 in test [1] of 69 nM. In test [2], the concentration for a half-maximal effect (EC50) stood at 376 nM. Regarding `O=C1Nc2cc(C(=O)NCc3ccccc3)ccc2/C1=C(/Nc1ccc(CN2CCCCC2)cc1)c1ccccc1`, the half-inhibitory concentration (IC50) in test [1] is 1530 nM.

Take `CCN(C)C(=O)c1ccc2c(c1)NC(=O)/C2=C(\NC1CCN(C)CC1)c1ccccc1`: the values for the IC50 in test [3] and in test [1] were more than 5000 nM and more than 50000 nM, respectively. The EC50 in test [2] was more than 10000 nM.

`CCNC(=O)c1ccc2c(c1)NC(=O)/C2=C(\Nc1ccc(N(CCN(C)C)C(C)=O)cc1)c1ccccc1` came in with a half-inhibitory concentration (IC50) in test [1] of 3 nM. Also, in test [2], the EC50 came to 1070 nM. Regarding `CCN(C)C(=O)c1ccc2c(c1)NC(=O)/C2=C(\Nc1ccc(N(C)S(C)(=O)=O)cc1)c1ccccc1`, in test [1], the IC50 stood at 231 nM. Besides, the EC50 in test [2] is more than 10000 nM. The compound `CCNC(=O)c1ccc2c(c1)NC(=O)/C2=C(\Nc1ccc(N(CCCN(C)C)C(C)=O)cc1)c1ccccc1` yielded a half-maximal inhibitory concentration (IC50) in test [1] of 3 nM. Moreover, the concentration giving a half-maximal response (EC50) in test [2] worked out at 1250 nM.

`CCNC(=O)c1ccc2c(c1)NC(=O)/C2=C(\Nc1ccc(C(=O)NCCN(CC)CC)cc1)c1ccccc1` displayed a half-maximal inhibitory concentration (IC50) in test [1] of 33 nM. Further, in test [2], the concentration giving a half-maximal response (EC50) was determined as 505 nM. As to `CC(C)NC(=O)c1ccc2c(c1)NC(=O)/C2=C(\Nc1ccc(CN2CCCCC2)cc1)c1ccccc1`, half-maximal inhibition in test [1] (IC50) required 318 nM. Also, in test [2], the 50% effective concentration (EC50) came out at 708 nM. `CCN(C)C(=O)c1ccc2c(c1)NC(=O)/C2=C(\Nc1ccc(C(=O)OC)cc1)c1ccccc1` registered an IC50 in test [1] of 1970 nM.

For `NC(=O)c1ccc2c(c1)NC(=O)/C2=C(\Nc1ccc(CN2CCCCC2)cc1)c1ccccc1`, the half-maximal inhibitory concentration (IC50) in test [1] was 369 nM. Further, the EC50 in test [2] was more than 50000 nM.
